# Laboratory results published in article PMC9028219 (Frontiers in Nutrition, 2022).
# Like-named read-outs stand apart in the source and are kept apart here.
# Tests used:
# FaDu [1] = experiment: SRB anti-proliferative assay; format: cell-based; settings: Homo sapiens, 72 h
# Procedure: (§1) The cell lines used for the present study were K562 (erythroid leukemia), COLO-205 (colon carcinoma), FaDu (hypopharyngeal carcinoma), MCF-7 (breast ER+ve adenocarcinoma), WRL-68 (hepatocellular carcinoma), A549 (lung carcinoma), and HEK-293 (embryonic kidney). These cell lines were purchased from the National Center for Cell Sciences (NCCS), Pune, India, except FaDu, which Dr. Sarkar endowed from CSIR-Central Drug Research Institute, Lucknow, Uttar Pradesh, India.
# (§2) The SRB assay was carried out by following the method reported by Skehan et al. ([27]) with a slight modification ([28]). In 96 well plates, approximately ~2 ×10^3 cells per well were seeded. […] Approximately 20% of TCA was added in treated plates to precipitate cellular proteins, followed by washing cells with tap water and adding 10 μl SRB dye (0.4%) in each well of the plate. Then, the plate was washed with 1% acetic acid to remove the unbound dye. The bound dye was dissolved in 200 μl tris base (10 mM). The absorbance was finally measured at 515 nm using a spectrophotometer (Multiskan^TM Go SkanIt Software, version 4.0, Thermo Fisher Scientific, Waltham, MA, USA).
# K562 = experiment: SRB anti-proliferative assay; format: cell-based; settings: Homo sapiens, K562, 72 h
# Procedure: as §1, §2
# FaDu [2] = experiment: MTT anti-proliferative assay; format: cell-based; settings: Homo sapiens
# Procedure: as §1
# (§3) The MTT assay was performed following the protocol as Mosmann ([30]) determined. […] The next day, 10 μl (500 μg/ml) of MTT dye was added to each well of the plate and further incubated for 4 h. After that, the formazan crystal was dissolved in 100 μl DMSO and absorbance was measured at 570 nm. The SRB, NRU, and MTT assays were calculated using percentage cytotoxicity concerning control ([30]).
# A549 = experiment: NRU anti-proliferative assay; format: cell-based; settings: Homo sapiens
# Procedure: as §1
# (§4) The NRU assay was carried out by Babich and Borenfreund ([29]) method. Similar to the SRB assay, 5 μl NRU dye was added to the treated plate. Then, cells were washed with fixative solution after 3 h of incubation; further, the bound dye was solubilized in a dissolving solution. The absorbance was measured at 540 nm ([29]).
# FaDu [3] = experiment: NRU anti-proliferative assay; format: cell-based, human
# Procedure: as §1, §4
# COLO-205 = experiment: Anti-proliferative activity (SRB, MTT, NRU assays); format: cell-based, human; settings: COLO-205, higher tested concentration 100 μM
# Procedure: as §1, §2, §4, §3
# [4] = tested on: HEK-293 (normal) cell line; experiment: Anti-proliferative activity (SRB, MTT, NRU assays); format: cell-based, human
# Procedure: as §1, §2, §4, §3
# MCF-7 = experiment: Anti-proliferative activity (SRB, MTT, NRU assays); format: cell-based, human; settings: MCF-7, higher tested concentration 100 μM
# Procedure: as §1, §2, §4, §3
# WRL-68 = experiment: Anti-proliferative activity (SRB, MTT, NRU assays); format: cell-based, human; settings: WRL-68, higher tested concentration 100 μM
# Procedure: as §1, §2, §4, §3
# [5] = target: T1, Dihydrofolate reductase (DHFR) (Homo sapiens, UniProt P00374); experiment: DHFR activity assay in lysate of treated cells; settings: cell-based test system, higher tested concentration 100 μM
# T1 construct: endogenous in cells; host or cells: FaDu, K562, A549
# T1 sequence (P00374 whole entry): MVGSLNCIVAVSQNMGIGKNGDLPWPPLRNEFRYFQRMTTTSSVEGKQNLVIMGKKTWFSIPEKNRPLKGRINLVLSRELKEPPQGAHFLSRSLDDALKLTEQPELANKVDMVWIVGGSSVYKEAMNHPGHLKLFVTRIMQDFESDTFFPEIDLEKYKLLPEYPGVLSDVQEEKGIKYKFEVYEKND
# Procedure: (§5) Protein was estimated by nanodrop before being used for the enzyme assays.
# In one set, ~10 μg of cell lysate was incubated with a reaction cocktail (2.3 mM DHFA, 0.11 mM β-NADPH in 50 mM potassium phosphate buffer, and pH 6.5), while another set was incubated in the reaction cocktail containing 0.1% bovine serum albumin (BSA) solution. The reaction mixture was mixed, and the kinetic study was performed at 340 nm for 5 min. The results were calculated using percentage inhibition concerning control ([31]). The ODC activity was determined by the modified method reported by Luqman et al. ([32]). Approximately 10 μg of cell lysate was added to the reaction cocktail (2.5 mM β-mercaptoethanol, 1.5 mM EDTA, 75 nM pyridoxal-phosphate, 3 mM L-ornithine hydrochloride in 150 mM potassium phosphate buffer, and pH 7.1). Approximately, 400 μl of 1 M perchloric acid was used to terminate the reaction, and NaOH (4N) was added to the supernatant. Further, 1-pentanol was added after centrifugation. Then, the upper organic phase was transferred to a microcentrifuge tube with 200 μl sodium borate, 200 μl TNBS, and 400 μl DMSO. Further, it was centrifuged, and 60 μl of supernatant was taken in plate, and absorbance was measured at 412 nm. The graph was plotted in the terms of percentage inhibition.
# [6] = target: T2, Ornithine decarboxylase (ODC) (Homo sapiens, UniProt P11926); experiment: ODC activity assay in lysate of treated cells; format: cell-based; settings: A549, 100 μM
# T2 construct: endogenous in cells; host or cells: A549
# T2 sequence (P11926 whole entry): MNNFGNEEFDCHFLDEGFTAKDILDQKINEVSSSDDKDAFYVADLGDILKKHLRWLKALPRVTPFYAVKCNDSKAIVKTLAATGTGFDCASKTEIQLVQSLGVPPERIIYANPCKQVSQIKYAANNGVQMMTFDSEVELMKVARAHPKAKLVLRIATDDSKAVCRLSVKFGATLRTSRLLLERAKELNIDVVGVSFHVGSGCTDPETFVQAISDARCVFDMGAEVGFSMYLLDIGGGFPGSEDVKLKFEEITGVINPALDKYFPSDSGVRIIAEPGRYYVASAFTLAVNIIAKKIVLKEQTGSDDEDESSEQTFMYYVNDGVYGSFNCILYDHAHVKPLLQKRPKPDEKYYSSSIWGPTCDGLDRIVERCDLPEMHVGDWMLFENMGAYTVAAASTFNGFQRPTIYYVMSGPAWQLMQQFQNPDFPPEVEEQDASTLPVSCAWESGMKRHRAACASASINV
# Hyaluronidase (HYAL) = experiment: HYAL activity assay in cell lysate; format: cell-based, human
# Procedure: as §5
# (§6) The HYAL assay was performed by the standard reported protocol ([35]). Approximately 10 μg of cell lysate added in enzyme diluent buffer (77 mM sodium chloride, 20 mM sodium phosphate, 0.01% albumin, and pH 7.0 at 37°C). The reaction mixture was incubated for 45 min after adding HA (substrate). The mixture was distributed in three parts, each well of the plate containing 25 μl followed by the addition of 125 μl of diluent buffer (79 mM acetic acid, 24 mM sodium acetate, 0.1% albumin bovine, and pH 3.75). The absorbance was measured at 600 nm after 10 min incubation. The graph was shown in the terms of percentage inhibition. Hemoglobin was used as a substrate to determine CATD activity ([36]). Cell lysate (10 μg) was incubated with a reaction cocktail (2.5% of hemoglobin, deionised water, 400 mM citrate buffer, and pH 2.8) for 30 min at 37°C; the reaction was terminated by adding 5% TCA. Then, 200 μl of supernatant was taken in plate after centrifuge and absorbance were measured at 280 nm.
# Cathepsin D (CATD) = target: T3, Cathepsin D (CATD) (Homo sapiens, UniProt P07339); experiment: CATD activity assay in cell lysate; format: cell-based
# T3 construct: endogenous in cells; host or cells: FaDu, K562, A549
# T3 sequence (P07339 65-412): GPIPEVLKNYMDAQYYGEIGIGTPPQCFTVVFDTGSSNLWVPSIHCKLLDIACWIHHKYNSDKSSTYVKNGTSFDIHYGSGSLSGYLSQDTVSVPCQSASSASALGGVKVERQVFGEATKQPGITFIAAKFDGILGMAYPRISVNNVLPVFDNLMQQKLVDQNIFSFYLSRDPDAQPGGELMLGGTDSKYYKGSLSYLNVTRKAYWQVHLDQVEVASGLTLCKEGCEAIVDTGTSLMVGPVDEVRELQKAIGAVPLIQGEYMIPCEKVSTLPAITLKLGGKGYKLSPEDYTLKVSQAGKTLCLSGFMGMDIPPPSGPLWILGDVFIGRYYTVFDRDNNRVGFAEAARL
# Procedure: as §5, §6
# AKT = experiment: ELISA kit assay in FaDu cells; format: cell-based, human
# Procedure: (§7) The PI3K expression was determined using a kit procured from Bioassay Technology (Catalog No. E0896Hu). The protocol measured the AKT (Catalog No. 201-12-0893) and HDAC-6 (Catalog No. 201-12-2132) as indicated in the human-specific ELISA kit from Sun Red Company, China. mTOR (Catalog No. E-EL-H1655) was quantified by a kit purchased from ELab Sciences, USA. The VEGF (Catalog No. ab100663) and HIF-1α (Catalog No. ab171577) were estimated using a kit procured from Abcam, UK.
# HDAC-6 = experiment: ELISA kit assay in FaDu cells; format: cell-based, human
# Procedure: as §7
# HIF-1α = experiment: ELISA kit assay in FaDu cells; format: cell-based, human; settings: both tested concentrations
# Procedure: as §7
# PI3K = experiment: ELISA kit assay in FaDu cells; format: cell-based, human
# Procedure: as §7
# VEGF = experiment: ELISA kit assay in FaDu cells; format: cell-based, human; settings: both tested concentrations
# Procedure: as §7
# mTOR = experiment: ELISA kit assay in FaDu cells; format: cell-based, human
# Procedure: as §7
# FaDu cells [7] = experiment: Cell cycle analysis (PI, flow cytometer); format: cell-based, human; settings: PI staining
# Procedure: (§8) The cell cycle analysis was carried out by the protocol reported by Fatima et al. ([40]). The cell lines were fixed with 70% ethanol. Before analysis, fixed cells were washed at least two times with PBS and PI solution containing RNase A to stain the cells. The samples were run on a flow cytometer within 1 h. Treated FaDu cells were incubated with 10 μM of DCFH-DA dye for 30 min then fluorescence was measured at 485/530 nm of […]. For FACS analysis, treated cells were incubated with 10 μM of DCFH-DA dye for 30 min, and the samples were analyzed within 1 h ([41]). The protocol for the analysis of MMP was similar to that of DCFH-DA except for Rhodamine 123 dye ([41]). The experiment was also carried out as per the method reported in Annexin-V-FITC apoptosis detection kit I (BD Pharmingen^TM, Catalog No. 556547). For the assay, 1 × 10^6 cells were grown in 6 well plates and treatment was given 24 h. The next day, cells were washed with cold PBS, and the pellet was resuspended in 100 μl (1X binding) buffer and left for 15 min followed by incubation with a dual fluorescent dye (5 μl FITC and 5 μl PI) for 10 min. The cell suspension was maintained upto 500 μl from the 1X binding buffer. The stained cells were analyzed by flow cytometer within 1 h ([42]).
# FaDu cells [8] = experiment: ROS production (DCFH-DA); format: cell-based, human
# Procedure: as §8
# FaDu cells [9] = experiment: Mitochondrial membrane potential (Rhodamine 123); format: cell-based, human
# Procedure: as §8
# FaDu cells [10] = experiment: Annexin V-FITC/PI apoptosis assay; format: cell-based, human
# Procedure: as §8
# [11] = tested on: Sarcoma-180 (S-180) tumor; settings: for Tumor growth inhibition: days 1-9, evaluated day 12; for Tumor cell count Mean ± S.E / Tumor volume Mean ± S.E / Tumor weight Mean ± S.E: days 1-9, evaluated day 12, n = 5
# Procedure: The S-180 cells were collected from Swiss albino mice harboring 8–10 days old cells from the peritoneal cavity. On day 0, the S-180 cells (1 × 10^7 cells/ml) were injected intra-peritoneal in non-inbred female Swiss albino mice (22–25 g, 8–10 weeks old) selected for the experiment. The next day (Day 1), the animals were randomized and divided into three treatment groups, one positive control group and one vehicle control group containing 5 animals in each group. […] The fourth group was given 5-fluorouracil; positive control at a dose of 20 mg/kg bw i.p. from day 1–9, and the fifth group (control) was administered normal saline (0.2 ml i.p.) for 9 days. On day 12, the animals were sacrificed, and the fluid was collected from each mouse's peritoneal cavity to evaluate tumor growth ([43]). The tumor growth inhibition was calculated using the following formula.
# Tumor Growth Inhibition(%)=(Number of tumor cells in control group-Number of tumor cells in the test group)/Number of tumor cells in the control group×100
# resistant species = settings: against the resistant species; ref [8], [9]; cited from earlier work
# Cyclooxygenase-2 (COX-2) = Cyclooxygenase-2 (COX-2) (Homo sapiens, UniProt P35354); experiment: COX-2 activity assay in cell lysate; settings: A549, 100 μM
# Cyclooxygenase-2 (COX-2), sequence (P35354 18-604): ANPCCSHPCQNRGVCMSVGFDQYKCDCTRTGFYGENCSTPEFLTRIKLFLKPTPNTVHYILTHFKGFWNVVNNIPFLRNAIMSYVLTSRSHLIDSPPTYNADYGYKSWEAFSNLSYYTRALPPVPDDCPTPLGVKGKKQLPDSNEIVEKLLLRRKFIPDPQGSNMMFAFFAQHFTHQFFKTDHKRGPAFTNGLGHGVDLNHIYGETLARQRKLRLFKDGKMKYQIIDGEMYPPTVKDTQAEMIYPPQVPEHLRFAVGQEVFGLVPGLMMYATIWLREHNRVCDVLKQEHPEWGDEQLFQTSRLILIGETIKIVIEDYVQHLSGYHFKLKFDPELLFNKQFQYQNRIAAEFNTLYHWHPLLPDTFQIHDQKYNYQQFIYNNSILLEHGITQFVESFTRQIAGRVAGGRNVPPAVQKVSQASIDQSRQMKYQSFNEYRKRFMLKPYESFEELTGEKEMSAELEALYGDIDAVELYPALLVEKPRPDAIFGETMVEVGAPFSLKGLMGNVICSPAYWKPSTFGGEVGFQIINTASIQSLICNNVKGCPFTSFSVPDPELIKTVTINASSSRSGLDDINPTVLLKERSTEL
# Procedure: (§9) Cyclooxygenase-2 (COX-2) activity was measured as reported by Kulmaczand Lands ([33]). The reaction cocktail consists of Tris-HCl buffer (100 mM and pH 8.0), EDTA (3 μM), hematin (15 μM), and cell lysate. After incubation, arachidonic acid (AA) and N,N,N′,N′-tetra methyl-p-phenylenediamine (TMPD) was added to 96 well plates to initiate the reaction. The reaction mixture was immediately auto mixed using the Multiscan Go of Thermo Scientific spectrophotometer, and absorbance was measured at 590 nm ([33]). The enzyme inhibition was calculated concerning control. […] Approximately 40 μM of AA was mixed to initiate the reaction, and the plate was kept for 4 min at room temperature. The reaction was terminated by adding an equal ratio of reagent 1 (4.5 mM FeSo4 in HCl) and reagent 2 (3% NH4SCN). The absorbance was taken at 480 nm using a spectrophotometer ([34]). The enzyme inhibition was compared concerning control.
# Lipoxygenase-5 (LOX-5) = Lipoxygenase-5 (LOX-5) (Homo sapiens, UniProt P09917); experiment: LOX-5 activity assay in cell lysate
# Lipoxygenase-5 (LOX-5), sequence (P09917 whole entry): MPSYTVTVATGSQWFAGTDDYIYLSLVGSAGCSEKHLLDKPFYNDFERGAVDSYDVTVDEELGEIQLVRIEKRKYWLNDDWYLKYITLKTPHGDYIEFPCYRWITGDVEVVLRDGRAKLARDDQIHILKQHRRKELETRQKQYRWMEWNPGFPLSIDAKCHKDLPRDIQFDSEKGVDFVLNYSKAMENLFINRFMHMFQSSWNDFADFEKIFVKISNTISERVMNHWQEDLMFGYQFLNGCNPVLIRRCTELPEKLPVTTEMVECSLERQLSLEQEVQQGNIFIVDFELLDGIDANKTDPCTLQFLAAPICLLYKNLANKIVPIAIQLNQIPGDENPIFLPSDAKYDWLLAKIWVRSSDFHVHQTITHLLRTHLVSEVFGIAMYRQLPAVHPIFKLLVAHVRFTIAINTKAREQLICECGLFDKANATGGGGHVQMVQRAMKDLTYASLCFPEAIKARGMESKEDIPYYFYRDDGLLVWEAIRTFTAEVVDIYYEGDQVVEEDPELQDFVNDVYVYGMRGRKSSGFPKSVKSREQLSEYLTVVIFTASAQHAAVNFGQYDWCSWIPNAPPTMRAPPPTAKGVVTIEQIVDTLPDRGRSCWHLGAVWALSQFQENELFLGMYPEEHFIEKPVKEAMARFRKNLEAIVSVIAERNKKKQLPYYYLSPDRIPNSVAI
# Procedure: as §9
# [12] = higher concentration (4 x IC50), 24 h
structure (smiles),measurement,setting,value
"Cc1ccc(C(C)C)cc1O [carvacrol, 5-isopropyl-2-methyl phenol]",IC50,FaDu [1],42 ± 11.4 µM
same,IC50,K562,81.3 ± 11.8 µM
same,IC50,FaDu [2],9.61 ± 0.05 µM
same,IC50,A549,80.9 ± 8.28 µM
same,growth inhibition,FaDu [3],35.32 ± 2.85%
same,reduction of proliferation,COLO-205,up to 24%
same,cell growth inhibition,[4],approximately 25%
same,reduction of proliferation,MCF-7,up to 24%
same,reduction of proliferation,WRL-68,up to 24%
same,suppression of DHFR enzyme action,[5],up to 7%
same,reduction of ODC activity,[6],35.68%
same,reduction of HYAL enzyme action,"Hyaluronidase (HYAL); A549, 100 μM",39.15%
same,IC50,Hyaluronidase (HYAL); FaDu,88.1 ± 10.4 µM
same,IC50,Hyaluronidase (HYAL); K562,62 ± 8.4 µM
same,suppression of CATD activity,Cathepsin D (CATD); A549,2 ± 0.52%
same,suppression of CATD activity,Cathepsin D (CATD); FaDu,18.48 ± 0.33%
same,suppression of CATD activity,Cathepsin D (CATD); K562,5 ± 0.94%
same,effect on AKT activity,AKT,suppresses the activity of the PI3K/AKT at the higher tested concentration
same,effect on HDAC-6 activity,HDAC-6,inhibits HDAC-6 activity in a dose-dependent manner
same,effect on HIF-1α activity,HIF-1α,the effect was non-significant
same,effect on PI3K activity,PI3K,suppresses the activity of the PI3K/AKT at the higher tested concentration
same,effect on VEGF activity,VEGF,the effect was non-significant
same,effect on mTOR activity,mTOR,reduces the activity
same,cell cycle phase arrest,FaDu cells [7],arrests the G2/M phase of FaDu cells in a dose-dependent manner
same,sub-diploid population,FaDu cells [7],raises the sub-diploid population number
same,ROS production,FaDu cells [8],"increases the ROS production in FaDu cell line in a dose-dependent manner; however, the effect was non-significant"
same,mitochondrial membrane potential,FaDu cells [9],diminishes the membrane potential of the FaDu cell line at the tested concentrations
same,significance of effect on apoptosis and necrosis,FaDu cells [10]; Annexin V-FITC and PI,non-significant
same,early apoptosis (A+/P-),FaDu cells [10]; [12],0.1%
same,late apoptosis (A+/P+),FaDu cells [10]; [12],1.4%
same,necrosis (A-/P+),FaDu cells [10]; [12],3.4%
same,Tumor growth inhibition,[11]; 25 mg/kg bw i.p.,28.12%
same,Tumor cell count Mean ± S.E,[11]; 25 mg/kg bw i.p.,57.5 ± 8.72 1 × 10^7
same,Tumor volume Mean ± S.E,[11]; 25 mg/kg bw i.p.,3.5 ± 0.54 mL
same,Tumor weight Mean ± S.E,[11]; 25 mg/kg bw i.p.,3.36 ± 0.60 g
same,Tumor growth inhibition,[11]; 50 mg/kg bw i.p.,55.94%
same,Tumor cell count Mean ± S.E,[11]; 50 mg/kg bw i.p.,35.25 ± 4.68^** 1 × 10^7
same,Tumor volume Mean ± S.E,[11]; 50 mg/kg bw i.p.,1.57 ± 0.25 mL
same,Tumor weight Mean ± S.E,[11]; 50 mg/kg bw i.p.,1.39 ± 0.33 g
same,Tumor growth inhibition,[11]; 75 mg/kg bw i.p.,72.62%
same,Tumor volume Mean ± S.E,[11]; 75 mg/kg bw i.p.,1.16 ± 0.34 mL
same,Tumor weight Mean ± S.E,[11]; 75 mg/kg bw i.p.,1.10 ± 0.41 g
same,effect on mice bw,"[11]; 75, 50 and 25 mg/kg bw i.p.",no adverse effect
same,mortality,[11]; during the experimental period,no mortality was noticed
same,minimum inhibitory concentration (MIC),resistant species,0.015–0.03 % v/v
same,reduction of COX-2 activity,Cyclooxygenase-2 (COX-2),13.33%
same,suppression of LOX-5 activity,Lipoxygenase-5 (LOX-5); A549,< 50%
same,suppression of LOX-5 activity,Lipoxygenase-5 (LOX-5); K562,< 50%
